Blank lines part the entries; values can stand above or below the compound they belong to.
What was measured:
[1] = biological target: T1, Adenosine receptor A1 (Cavia porcellus, UniProt P47745); assay: Binding affinity against adenosine A1 receptor using [3H]CPX in guinea pig DDT membrane; 117+/-46
T1 sequence (P47745 whole entry): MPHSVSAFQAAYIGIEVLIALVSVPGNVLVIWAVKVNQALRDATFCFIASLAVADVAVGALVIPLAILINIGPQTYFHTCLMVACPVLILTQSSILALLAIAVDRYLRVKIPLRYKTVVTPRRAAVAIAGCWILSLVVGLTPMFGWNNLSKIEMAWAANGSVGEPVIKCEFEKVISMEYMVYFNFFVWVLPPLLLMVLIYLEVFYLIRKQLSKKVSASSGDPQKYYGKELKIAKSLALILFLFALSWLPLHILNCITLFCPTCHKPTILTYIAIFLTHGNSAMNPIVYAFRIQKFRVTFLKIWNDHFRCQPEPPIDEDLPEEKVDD

[2] = biological target: T1, Adenosine receptor A1; assay: Binding affinity against adenosine A1 receptor using [3H]CPX in guinea pig DDT membrane; 7292+/-3241
[3] = biological target: T1, Adenosine receptor A1; assay: Binding affinity against adenosine A1 receptor using [3H]CPX in guinea pig DDT membrane; 1945+/-1316
[4] = biological target: T1, Adenosine receptor A1; assay: Binding affinity against adenosine A1 receptor using [3H]CPX in guinea pig DDT membrane; 604+/-241
[5] = biological target: T1, Adenosine receptor A1; assay: Binding affinity against adenosine A1 receptor using [3H]CPX in guinea pig DDT membrane
[6] = biological target: T1, Adenosine receptor A1; assay: Binding affinity against adenosine A1 receptor using [3H]CPX in guinea pig DDT membrane; 5497+/-180
[7] = biological target: T1, Adenosine receptor A1; assay: Binding affinity against adenosine A1 receptor using [3H]CPX in guinea pig DDT membrane; 343+/-137
[8] = biological target: T1, Adenosine receptor A1; assay: Binding affinity against adenosine A1 receptor using [3H]CPX in guinea pig DDT membrane; 1666+/-556
[9] = biological target: T1, Adenosine receptor A1; assay: Binding affinity against adenosine A1 receptor using [3H]CPX in guinea pig DDT membrane; 503+/-262
[10] = biological target: T1, Adenosine receptor A1; assay: Binding affinity against adenosine A1 receptor using [3H]CPX in guinea pig DDT membrane; 1773+/-209
[11] = biological target: T1, Adenosine receptor A1; assay: Binding affinity against adenosine A1 receptor using [3H]CPX in guinea pig DDT membrane; 338+/-98
[12] = biological target: T1, Adenosine receptor A1; assay: Binding affinity against adenosine A1 receptor using [3H]CPX in guinea pig DDT membrane; 614+/-78
[13] = biological target: T1, Adenosine receptor A1; assay: Binding affinity against adenosine A1 receptor using [3H]CPX in guinea pig DDT membrane; 1571+/-245
[14] = biological target: T1, Adenosine receptor A1; assay: Binding affinity against adenosine A1 receptor using [3H]CPX in guinea pig DDT membrane; 400+/-38
[15] = biological target: T1, Adenosine receptor A1; assay: Binding affinity against adenosine A1 receptor using [3H]CPX in guinea pig DDT membrane; 5855+/-1208
[16] = biological target: T1, Adenosine receptor A1; assay: Binding affinity against adenosine A1 receptor using [3H]CPX in guinea pig DDT membrane; 166+/-75
[17] = biological target: T1, Adenosine receptor A1; assay: Binding affinity against adenosine A1 receptor using [3H]-CPX in guinea pig DDT membrane; 4191+/-922
[18] = biological target: T1, Adenosine receptor A1; assay: Binding affinity against adenosine A1 receptor using [3H]CPX in guinea pig DDT membrane; 287+/-125
[19] = biological target: T1, Adenosine receptor A1; assay: Binding affinity against adenosine A1 receptor using [3H]CPX in guinea pig DDT membrane; 913+/-517
[20] = biological target: T1, Adenosine receptor A1; assay: Binding affinity against adenosine A1 receptor using [3H]CPX in guinea pig DDT membrane; 6250+/-1767
[21] = biological target: T1, Adenosine receptor A1; assay: Binding affinity against adenosine A1 receptor using [3H]CPX in guinea pig DDT membrane; 894+/-659
[22] = biological target: T1, Adenosine receptor A1; assay: Binding affinity against adenosine A1 receptor using [3H]CPX in guinea pig DDT membrane; 1143+/-426
[23] = biological target: T1, Adenosine receptor A1; assay: Binding affinity against adenosine A1 receptor using [3H]CPX in guinea pig DDT membrane; 354+/-113
[24] = biological target: T1, Adenosine receptor A1; assay: Binding affinity against adenosine A1 receptor using [3H]CPX in guinea pig DDT membrane; 473+/-329
[25] = biological target: T1, Adenosine receptor A1; assay: Binding affinity against adenosine A1 receptor using [3H]CPX in guinea pig DDT membrane; 158+/-21
[26] = biological target: T1, Adenosine receptor A1; assay: Binding affinity against adenosine A1 receptor using [3H]CPX in guinea pig DDT membrane; 506+/-111

Ki [1]: 117 nM
Structure (SMILES): O[C@@H]1[C@@H](COc2ccccc2F)OC(n2cnc3c(NC4CCOC4)ncnc32)[C@@H]1O (stereo partly specified)

Ki [2]: 7290 nM
Structure (SMILES): Cc1cccc(Cl)c1SC[C@H]1OC(n2cnc3c(NC4CCOC4)ncnc32)[C@H](O)[C@@H]1O (stereo partly specified)

Ki [4]: 604 nM
Structure (SMILES): O[C@@H]1[C@@H](COc2cccc(F)c2)OC(n2cnc3c(NC4CCOC4)ncnc32)[C@@H]1O (stereo partly specified)

Ki [7]: 343 nM
Structure (SMILES): O[C@@H]1[C@@H](COc2ccc(F)cc2)OC(n2cnc3c(NC4CCOC4)ncnc32)[C@@H]1O (stereo partly specified)

Ki [9]: 503 nM
Structure (SMILES): Cc1ccccc1OC[C@H]1OC(n2cnc3c(NC4CCOC4)ncnc32)[C@H](O)[C@@H]1O (stereo partly specified)

Ki [11]: 338 nM
Structure (SMILES): O[C@@H]1[C@@H](CSc2ccccc2Cl)OC(n2cnc3c(NC4CCOC4)ncnc32)[C@@H]1O (stereo partly specified)

Ki [12]: 614 nM
Structure (SMILES): O[C@@H]1[C@@H](CSc2c(Cl)cccc2Cl)OC(n2cnc3c(NC4CCOC4)ncnc32)[C@@H]1O (stereo partly specified)

Ki [5]: 165 nM
Structure (SMILES): O[C@@H]1[C@@H](COCc2ccccc2)OC(n2cnc3c(NC4CCOC4)ncnc32)[C@@H]1O (stereo partly specified)

Ki [22]: 1140 nM
Structure (SMILES): Cc1ccccc1SC[C@H]1OC(n2cnc3c(NC4CCOC4)ncnc32)[C@H](O)[C@@H]1O (stereo partly specified)

Ki [24]: 473 nM
Structure (SMILES): O[C@@H]1[C@@H](COc2ccccc2Cl)OC(n2cnc3c(NC4CCOC4)ncnc32)[C@@H]1O (stereo partly specified)

Ki [26]: 506 nM
Structure (SMILES): O[C@@H]1[C@H](O)[C@@H](CSc2ccccc2F)O[C@H]1n1cnc2c(NC3CCOC3)ncnc21 (stereo partly drawn) [N6-Tetrahydrofuranyl-9H-[5-deoxy-5-(2-fluorophenylthio)-beta-D-ribofuranosyl]adenine]

The remaining lines, values behind:

Structure (SMILES): O[C@@H]1[C@@H](CSc2nc3ccc(Cl)cc3o2)OC(n2cnc3c(NC4CCOC4)ncnc32)[C@@H]1O (stereo partly specified)
Ki [3]: 1940 nM

Structure (SMILES): O[C@@H]1[C@H](O)[C@@H](CSc2ccc(F)cc2F)O[C@H]1n1cnc2c(NC3CCOC3)ncnc21 (stereo partly specified)
Ki [5]: 494 nM | Ki [6]: 5500 nM

Structure (SMILES): COc1ccc2nc(SC[C@H]3OC(n4cnc5c(NC6CCCC6)ncnc54)[C@H](O)[C@@H]3O)sc2c1 (stereo partly specified)
Ki [8]: 1670 nM

Structure (SMILES): Cc1cc(COC[C@H]2OC(n3cnc4c(NC5CCOC5)ncnc43)[C@H](O)[C@@H]2O)no1 (stereo partly specified)
Ki [5]: 192 nM

Structure (SMILES): O[C@@H]1[C@@H](CSc2nc3ccccc3s2)OC(n2cnc3c(NC4CCCC4)ncnc32)[C@@H]1O (stereo partly specified)
Ki [10]: 1770 nM

Structure (SMILES): Cc1csc(SC[C@H]2OC(n3cnc4c(NC5CCOC5)ncnc43)[C@H](O)[C@@H]2O)n1 (stereo partly specified)
Ki [5]: > 5000 nM

Structure (SMILES): O[C@@H]1[C@@H](CSc2cccc(F)c2)OC(n2cnc3c(NC4CCOC4)ncnc32)[C@@H]1O (stereo partly specified)
Ki [13]: 1570 nM

Structure (SMILES): O[C@@H]1[C@@H](COc2ccccc2F)OC(n2cnc3c(NC4CCCC4)ncnc32)[C@@H]1O (stereo partly specified)
Ki [5]: 4390 nM

Structure (SMILES): O[C@@H]1[C@@H](CSc2nc3ccccc3s2)OC(n2cnc3c(NC4CCOC4)ncnc32)[C@@H]1O (stereo partly specified)
Ki [14]: 400 nM

Structure (SMILES): Cc1cccc(C)c1SC[C@H]1OC(n2cnc3c(NC4CCOC4)ncnc32)[C@H](O)[C@@H]1O (stereo partly specified)
Ki [15]: 5850 nM

Structure (SMILES): O[C@@H]1[C@@H](CSc2nccs2)OC(n2cnc3c(NC4CCCC4)ncnc32)[C@@H]1O (stereo partly specified)
Ki [16]: 166 nM

Structure (SMILES): Cn1ccnc1SC[C@H]1OC(n2cnc3c(NC4CCOC4)ncnc32)[C@H](O)[C@@H]1O (stereo partly specified)
Ki [17]: 4190 nM

Structure (SMILES): O[C@@H]1[C@@H](CSc2ccccc2F)OC(n2cnc3c(NC4CCCC4)ncnc32)[C@@H]1O (stereo partly specified)
Ki [18]: 287 nM

Structure (SMILES): O[C@@H]1[C@@H](CSc2ncccn2)OC(n2cnc3c(NC4CCOC4)ncnc32)[C@@H]1O (stereo partly specified)
Ki [19]: 913 nM

Structure (SMILES): O[C@@H]1[C@@H](CSc2ccccc2C(F)(F)F)OC(n2cnc3c(NC4CCOC4)ncnc32)[C@@H]1O (stereo partly specified)
Ki [20]: 6250 nM

Structure (SMILES): O[C@@H]1[C@@H](CSc2ccccn2)OC(n2cnc3c(NC4CCOC4)ncnc32)[C@@H]1O (stereo partly specified)
Ki [21]: 894 nM

Structure (SMILES): COc1ccc2sc(SC[C@H]3OC(n4cnc5c(NC6CCCC6)ncnc54)[C@H](O)[C@@H]3O)nc2c1 (stereo partly specified)
Ki [23]: 354 nM

Structure (SMILES): Cn1ccnc1SC[C@H]1OC(n2cnc3c(NC4CCCC4)ncnc32)[C@H](O)[C@@H]1O (stereo partly specified)
Ki [5]: 1340 nM

Structure (SMILES): O[C@@H]1[C@@H](CSc2nccs2)OC(n2cnc3c(NC4CCOC4)ncnc32)[C@@H]1O (stereo partly specified)
Ki [25]: 158 nM
